# Results taken from EP1343508B1, “USE OF AN OESTROGEN IN THE MANUFACTURE OF A COMPOSITION CONTAINING OESTROGEN FOR THE TREATMENT OF ATROPHIC VAGINITIS” (Novo Nordisk Femcare AG, priority 2000, dated 2002).
# Values joined by “and” are separate entries in the source; they are usually repeats but may differ in a detail not shown here. Equal entries are not always repeated. Marks after values point to notes of the source that are not given here.
# What was measured:
# [1] = test system: vaginal mucosal cells; assay: Maturation value of vaginal mucosal cells, Example 2; format: in vivo, postmenopausal women
# Description: (§1) Maturation values of vaginal mucosal cells were assessed as an indicator of changes in the condition of the vaginal mucosa in response to treatment.
# (§2) After the screening visit, patients received no study treatment during the 4-week run-in period prior to the baseline visit. […] The vaginal tablets were identical in appearance. Patients inserted 1 tablet intravaginally, once daily for the initial 2 weeks of the study and then twice per week (Sunday and Thursday) for the remaining 10 weeks. Patients were instructed to use their medication at a consistent time each day, preferably in the morning.
# Upon presentation to the clinic for each visit, a vaginal cytology specimen was obtained. Patients then inserted the tablets. […] The blood samples obtained at 30 minutes before insertion, and at 6, 12, and 24 hours after insertion were also used to determine the FSH concentration via immunoradiometric assay. […]
# [2] = test system: postmenopausal women with atrophic vaginitis; assay: Vaginal health composite score (investigator rating), Example 3; format: in vivo; conditions: each treatment group (25 or 10 µg E2); Week 0 (baseline); scale 0-3
# Description: Efficacy was measured with composite scores of vaginal symptoms (dryness, soreness, and irritation) and vaginal health (secretions, epithelial integrity, surface thickness, and pH). Vaginal and urethral cytology analyses were also performed, and the vaginal maturation value was determined. Safety assessments included endometrial biopsies. […] All vaginal tablets were identical in appearance. Patients inserted 1 tablet daily for 14 days. Thereafter, patients inserted 1 tablet twice per week (Sunday and Thursday) for the remainder of the trial. Patients were to insert the tablets at the same time each day (preferably at bedtime). Patients were evaluated for efficacy and safety at Week - 4 (screening), Week 0 (baseline), and Weeks 2, 7, and 12. […] Differences within and between treatment groups were analyzed using an analysis of variance (ANOVA). […] Efficacy was measured with composite scores of vaginal symptoms (dryness, soreness, and irritation) and vaginal health (secretions, epithelial integrity, surface thickness, and pH). Vaginal and urethral cytology analyses were also performed, and the vaginal maturation value was determined. […] Patients were evaluated for efficacy and safety at Week - 4 (screening), Week 0 (baseline), and Weeks 2, 7, and 12. […] Differences within and between treatment groups were analyzed using an analysis of variance (ANOVA).
# [3] = test system: postmenopausal women with atrophic vaginitis; assay: Vaginal symptom composite score (dryness, soreness, irritation), Example 3; format: in vivo; conditions: scale 0-3
# Description: Efficacy was measured with composite scores of vaginal symptoms (dryness, soreness, and irritation) and vaginal health (secretions, epithelial integrity, surface thickness, and pH). Vaginal and urethral cytology analyses were also performed, and the vaginal maturation value was determined. Safety assessments included endometrial biopsies. […] All vaginal tablets were identical in appearance. Patients inserted 1 tablet daily for 14 days. Thereafter, patients inserted 1 tablet twice per week (Sunday and Thursday) for the remainder of the trial. Patients were to insert the tablets at the same time each day (preferably at bedtime). Patients were evaluated for efficacy and safety at Week - 4 (screening), Week 0 (baseline), and Weeks 2, 7, and 12. Efficacy assessments included patient ratings of atrophic vaginitis symptoms, investigator ratings of vaginal health, and vaginal and urethral cytology. Patients used intensity ratings of none, mild, moderate, or severe to evaluate atrophic vaginitis symptoms (dryness, soreness, irritation, dyspareunia, and vaginal discharge). Intensity ratings were assigned ascending scores from 0 (none) to 3 (severe) for analysis. A composite score for atrophic vaginitis symptoms was defined as the average of the individual symptom scores for dryness, soreness, and irritation. […] The composite score and the change from baseline for the composite score were examined at each time point. Differences within and between treatment groups were analyzed using an analysis of variance (ANOVA). […] Efficacy was measured with composite scores of vaginal symptoms (dryness, soreness, and irritation) and vaginal health (secretions, epithelial integrity, surface thickness, and pH). Vaginal and urethral cytology analyses were also performed, and the vaginal maturation value was determined. Safety assessments included endometrial biopsies. […] Patients were evaluated for efficacy and safety at Week - 4 (screening), Week 0 (baseline), and Weeks 2, 7, and 12. […] Differences within and between treatment groups were analyzed using an analysis of variance (ANOVA).
# [4] = test system: FSH; assay: Serum FSH concentration (immunoradiometric assay), Example 2; format: in vivo, postmenopausal women; conditions: 25 µg E2; Week 12
# Description: as §1, §2
# Upon presentation to the clinic for each visit, a vaginal cytology specimen was obtained. Patients then inserted the tablets. […] The blood samples obtained at 30 minutes before insertion, and at 6, 12, and 24 hours after insertion were also used to determine the FSH concentration via immunoradiometric assay.
# Data for area under the curve and maximal concentration were converted to a logarithmic scale, and changes from first dose (at the baseline visit) in the logarithmic values were estimated using 95% confidence intervals derived from paired t-tests. […] Differences within treatment groups in FSH concentration were determined using the Wilcoxon signed rank test based on changes from baseline in mean concentrations at weeks 2 and 12. […]
structure (smiles),measurement,setting,value
"C[C@]12CC[C@@H]3c4ccc(O)cc4CC[C@H]3[C@@H]1CC[C@@H]2O [E2, 17β-estradiol]","maturation value, Mean ± SD","[1]; 10 µg E2, Week 0 (baseline)",51.0 and 51.0 ± 6.2
same,"maturation value, Mean change ± SD from baseline","[1]; 10 µg E2, Week 12",11.2 ± 17.8^b
same,"maturation value, Mean ± SD","[1]; 10 µg E2, Week 12",62.2 ± 15.7
same,patients with increases in maturation values from baseline,"[1]; 10 µg E2, Week 12",14 patients
same,percentage of patients with increases in maturation values from baseline,"[1]; 10 µg E2, Week 12",64%
same,"maturation value, Mean ± SD","[1]; 25 µg E2, Week 0 (baseline)",52.4 and 53.4 and 52.4 ± 7.1
same,"maturation value, Mean change ± SD from baseline","[1]; 25 µg E2, Week 12",7.0 ± 8.7^b
same,"maturation value, Mean ± SD","[1]; 25 µg E2, Week 12",58.4 ± 7.5
same,patients with increases in maturation values from baseline,"[1]; 25 µg E2, Week 12",13 patients
same,percentage of patients with increases in maturation values from baseline,"[1]; 25 µg E2, Week 12",68%
same,vaginal health composite score,[2],approximately 1.7
same,vaginal symptom composite score,"[3]; 10 µg E2, Week 12",~0.6
same,vaginal symptom composite score,"[3]; 25 µg E2, Week 12",approximately 0.5
same,vaginal symptom composite score,"[3]; each treatment group (25 or 10 µg E2), Week 0 (baseline)",approximately 1.9
same,patients with mean FSH concentrations below 35 mIU/mL,[4],3 patients
